# Data as given in article PMC12040169 (PLOS Biology, 2025).
# Assay: in vitro
# Conditions: human, hela cells, % viability
row,Structure (SMILES),"viability at 28.5 h, 10 µM [%]"
1,Cc1ccc(CN(C2CCN(C)CC2)S(=O)(=O)c2ccccc2F)cc1 [CBK160444T],90.8
2,CC(C)(C)c1ccc(C(=O)NNC(=O)C(=O)Nc2ccccc2)cc1 [CBK261701],83.1
3,CC(NC(=O)CSCc1ccco1)c1ccccc1 (centres unmarked) [CBK283237],100
4,CCn1c(CC2CCN(C(=O)CCn3cc(C)cn3)CC2)nn(C)c1=O [CBK307584],89.7
5,Cc1cc(C(=O)CN(C)S(=O)(=O)c2ccc(Cl)c(Cl)c2)c(C)n1C [CBK295661],102
6,NCC(O)CNC(=O)c1cc(-c2ccc(Cl)cc2)[nH]n1 (centres unmarked) [CBK160977],87
7,CC(Nc1nc(N2CCN(CCO)CC2)nc2ccccc12)c1ccccc1 (centres unmarked) [CBK269427],106
8,Oc1ccc(Cn2ccnc2)c2cccnc12 [CBK291102],89.3
9,COCCn1c(=O)[nH]c2ncc(-c3ccsc3)nc21 [CBK064156],108
10,COc1ccc(C2CCN(Cc3cccnc3)CC2)cc1 [CBK283564],96.1
11,O=C(NC1CCCC1)c1ccc(Cl)cc1Cl [CBK002108],93.7
12,Cc1csc(C(Cc2ccsc2)NC(=O)C2CCOC2)n1 (centres unmarked) [CBK285150],94.9
13,C=CCNC(=O)N[C@H]1[C@H](O)[C@@H](Oc2ccccc2)[C@@H]2OC[C@H]1O2 [CBK288812],90.5
14,CCOc1ccc(/C=C2/NC(=O)NC2=O)cc1Br [CBK098031],91.6
15,CCOC(=O)c1sc(NC(=O)C2CCCO2)c(C(N)=O)c1C (centres unmarked) [CBK058830],91.3
16,O=C(Nc1ccc(Cc2ccc(NC(=O)c3ccc(Br)cc3)c(O)c2)cc1O)c1ccc(Br)cc1 [CBK262086],102
17,O=C(Nc1cccnc1)c1cccnc1C(=O)O [CBK269663],90.1
18,c1ccc(Oc2cccc(OCCCN3CCCCC3)c2)cc1 [CBK261781],95.2
19,COc1ccnc(N2CCCN(CCN3CCOCC3)CC2)n1 [CBK084120],119
20,Clc1cncc(NCCc2c[nH]c3ccccc23)n1 [CBK093514],56.8
21,O=C(O)/C=C/c1cccc(-c2cncc(N3CCN(Cc4ccccn4)CC3)n2)c1 [CBK066085],96
22,Nc1ncc(-c2cc(C(F)(F)F)cc(C(F)(F)F)c2)nc1NCc1ccco1 [CBK063689],91.6

row,Structure (SMILES),"viability at 28.5 h, 10 µM [%]"
1,O=C(O)CCn1cc(/C=C2\SC(=S)NC2=O)c(-c2cccc(Br)c2)n1 [CBK265287],110
2,Cc1cccnc1NC(=O)C1CCCN1S(=O)(=O)c1ccc(Cl)cc1 (centres unmarked) [CBK269914],83.2
3,COc1ccc(Cc2nc(C3CCC3)n(CC3COCCO3)n2)cc1 (centres unmarked) [CBK307378],87.8
4,Cc1cc(C(=O)CSc2nc3cc(Cl)cnc3[nH]2)c(C)n1C1CC1 [CBK305867],79.5
5,COc1ccc([C@@]23CC[C@@H](NC(=O)CNc4ccc(Cl)c(Cl)c4)C[C@@H]2N(C)CC3)cc1OC [CBK038220],94.4
6,O=C(Nc1cccc(-c2noc(CCc3ccccc3)n2)c1)c1cccs1 [CBK270225],87.4
7,NS(=O)(=O)c1ccc(-c2ccc(/C=C3/SC(=S)N(C4CCCCC4)C3=O)o2)cc1 [CBK263127],88
8,CN1CCC(N(C)Cc2cc(Cl)ccc2[N+](=O)[O-])CC1 [CBK261576],91.1
9,Cc1ocnc1C(=O)NCC1CCN(c2ccccc2F)C1 (centres unmarked) [CBK304671],92.6
10,COCC(C)NCc1ccccc1C (centres unmarked) [CBK027852],115
11,O=C1NCC(C2CCN(Cc3ccccc3)CC2)Oc2ccccc21 (centres unmarked) [CBK282314],85.9
12,CCc1noc(C)c1C(=O)N1CCC(NC)C1 (centres unmarked) [CBK304299C],100
13,FC(F)(F)c1ccc(SCc2cccs2)nc1 [CBK103711],96.3
14,COc1ccc(Cl)cc1N1CCN(CCCn2c(=O)[nH]c3ccccc32)CC1 [CBK138338],95.7
15,COc1ccc(CN[C@H]2[C@H](O)[C@@H](N3CCCC3)[C@@H]3OC[C@H]2O3)cc1 [CBK288827],88.6
16,CCn1c(C2CCN(C(=O)c3ccc(C)c(Cl)c3)CC2)nn(C)c1=O [CBK307280],95.9
17,Cc1cc(C(=O)N2CCc3c(sc4ncnc(N)c34)C2)c(C)s1 [CBK304980],88.5
18,COc1cccc(-n2cnc3cccc(N)c32)c1 [CBK022114],94.9
19,NC(=O)c1c(NC(=O)/C=C/c2c(F)cccc2Cl)sc2c1CCCCCC2 [CBK262631],98.2
20,O=C(CCn1c(C(F)F)cc2cccnc21)N1CCCC(CO)C1 (centres unmarked) [CBK284985],99.5
21,CCOc1ccc(-c2ccnc(N3CCC(N(C)C)C3)n2)cc1C(=O)O (centres unmarked) [CBK307241],95
22,Cc1nc(C)n(CC2CCCN(CC(=O)NCc3ccccn3)C2)n1 (centres unmarked) [CBK305291],86.1

row,Structure (SMILES),"viability at 28.5 h, 10 µM [%]"
1,CN(Cc1ccco1)C(=O)c1cccc(NC(=O)C2CC2)c1 [CBK304857],101
2,COc1ccc2c(c1)C1(CC(=O)N(CCOc3ccccc3)C1=O)C(=O)N2C (centres unmarked) [CBK075168],95.2
3,CC(=O)Nc1ccc(S(=O)(=O)Oc2ccc(C3C4=C(CC(C)(C)CC4=O)N=C4c5ccccc5C(=O)C43)cc2)cc1 (centres unmarked) [CBK262964],93.7
4,CC(C)(C)NCCN1CCn2c1nc1ccccc12 [CBK019113],82
5,CCc1cc(S(=O)(=O)NC2CC(C)(C)NC(C)(C)C2)ccc1OC [CBK270097],92
6,COCc1nc2n(n1)CC(NC1CCCCc3ccccc31)CC2 (centres unmarked) [CBK304445],89.4
7,CCOc1cccc2cc(-c3cc(=O)oc4cc(C)c(O)cc34)oc12 [CBK300517],95.9
8,Cc1cccc(N2CCN(CCCOc3ccc(F)c(F)c3)CC2)n1 [CBK025158C],106
9,c1ccc2c(c1)NC(c1ccncc1)n1nnnc1-2 (centres unmarked) [CBK288171],82.5
10,CC(C)CNc1n[nH]c(=S)s1 [CBK016865],95.9
11,Cc1c(Cl)cccc1S(=O)(=O)Nc1ccc(C(=O)O)cc1 [CBK034050],86.4
12,CCN(CC)CCOC(=O)NS(=O)(=O)c1ccc(Cl)cc1 [CBK288510],97.6
13,O=C(O)CCc1ccc(-c2ccc(F)cc2)n1Cc1ccco1 [CBK265953],83.9
14,COc1ccc2[nH]cc(CCNC(=O)CCCN(C)C)c2c1 [CBK116202],96.4
15,COc1cccc(-c2ccc(C(=O)NCc3ccccc3SC)c(N3CCN(C(=O)c4ccco4)CC3)n2)c1 [CBK106025],94.3
16,O=C(CSCc1ccc(Br)cc1)NCc1ccccn1 [CBK268435],102
17,COc1cc(C(=S)N2CCN(C)CC2)ccc1OCC(N)=O [CBK269037],84.7
18,O=C(NCCn1ccnc1)C1CC(=O)N(c2cccc(F)c2)C1 (centres unmarked) [CBK281582],105
19,CN(C)CC(C)(C)CNC(=O)c1cnc2cc(C(F)(F)F)ccc2c1O [CBK107427],97.9
20,Cc1ccc(C(O)CN(C)Cc2c(C)nn(C)c2C)c(C)c1 (centres unmarked) [CBK282939],84.7

# Same assay, conditions: human, hela cells, % viability, bulk resorufin, single well
row,Structure (SMILES),"viability at 28.5 h, 10 µM [%]"
1,CC(C)(C)OC(=O)N1CCC2(CC1)OCc1cc(-c3cccc(OCc4ccc(Cl)c(Cl)c4)c3)ccc1O2 [CBK105230],86.6
